The source made the active and inactive calls. The rule behind the calls is not given here.
System: DN3.2.D3
Assay: Stimulation of IL2 release in mouse DN3.2.D3 cells by ELISA
Assay type: functional, cell-based

Compound | Activity
CCCCCCCCCCCCCC[C@@H](O)[C@@H](O)[C@H](CO[C@H]1O[C@H](CNC(C)=O)[C@H](O)[C@H](O)[C@H]1O[C@H]1O[C@H](CO)[C@H](O)[C@H](O)[C@H]1O)NC(=O)CCCCCCC | Active
CCCCCCCCCCCCCC[C@@H](O)[C@@H](O)[C@H](CO[C@H]1O[C@H](CNC(C)=O)[C@H](O)[C@H](O)[C@H]1O)NC(=O)CCCCCCC | Active
CCCCCCCCCCCCCC[C@@H](O)[C@@H](O)[C@H](CO[C@H]1O[C@H](CO)[C@H](O)[C@H](O)[C@H]1O)NC(=O)CCCCCCC | Active
